Data from article PMC3360681, “Comparison of Recombinant Human Haptocorrin Expressed in Human Embryonic Kidney Cells and Native Haptocorrin” (PLoS ONE, 2012).

T1: rhHC (recombinant human haptocorrin) (Homo sapiens, UniProt P20061)
T1 construct: Myc-His-tag (Myc + 6xHis, from pcDNA4/myc-His A) (C, cleaved yes); made in house
T1 sequence (P20061 24-433): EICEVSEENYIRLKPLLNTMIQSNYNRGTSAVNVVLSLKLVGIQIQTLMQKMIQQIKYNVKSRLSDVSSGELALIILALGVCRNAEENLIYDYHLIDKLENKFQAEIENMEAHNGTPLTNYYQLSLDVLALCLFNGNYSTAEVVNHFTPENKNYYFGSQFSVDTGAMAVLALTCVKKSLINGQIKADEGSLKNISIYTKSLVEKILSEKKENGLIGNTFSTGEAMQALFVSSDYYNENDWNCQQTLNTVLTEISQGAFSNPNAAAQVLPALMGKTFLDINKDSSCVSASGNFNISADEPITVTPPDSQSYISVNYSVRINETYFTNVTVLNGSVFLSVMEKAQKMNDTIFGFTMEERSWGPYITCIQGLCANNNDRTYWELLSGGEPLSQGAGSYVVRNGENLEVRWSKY

T2: TC (transcobalamin) (Homo sapiens, UniProt P20062)
T2 sequence (P20062 19-427): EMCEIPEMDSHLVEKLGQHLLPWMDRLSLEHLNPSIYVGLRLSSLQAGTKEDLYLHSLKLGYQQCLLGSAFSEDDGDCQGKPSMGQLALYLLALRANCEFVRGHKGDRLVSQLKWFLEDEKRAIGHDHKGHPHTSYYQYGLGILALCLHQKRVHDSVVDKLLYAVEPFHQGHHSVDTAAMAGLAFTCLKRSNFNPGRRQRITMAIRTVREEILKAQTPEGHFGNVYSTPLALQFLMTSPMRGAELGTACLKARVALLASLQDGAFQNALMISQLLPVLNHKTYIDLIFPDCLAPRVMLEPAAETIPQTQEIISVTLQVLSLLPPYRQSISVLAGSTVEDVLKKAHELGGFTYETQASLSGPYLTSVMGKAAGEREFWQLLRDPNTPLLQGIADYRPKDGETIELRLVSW


Experiments:
[1] = molecular target: T1, rhHC (recombinant human haptocorrin); assay: Binding and dissociation kinetics with fluorescent Cbl-conjugate CBC (stopped-flow competition and chase experiments); conditions: pH 7.5
Description: A more detailed examination of the binding kinetics was performed in a competitive assay, where the fluorescent ligand CBC [32] alone or in the mixture with a test ligand (Cbl or Cbi) reacted with rhHC over time. Attachment of CBC to Cbl-binding proteins causes increase in the quantum yield of the fluorophore, which facilitates monitoring of the protein - CBC interactions, [33]. Presence of a non-fluorescent ligand X decreases the signal, because the binding goes along two competing routes HC•CBC ← HC → HC·X (reactions behave as irreversible processes within 0.2 s). The binding and dissociation rate constants k +s and k−s, as well as the equilibrium dissociation constant KD were calculated for all ligands by computer fitting as explained elsewhere and the results are listed in Table 2. Compared to previously reported values for native HC, all current binding rate constants (k +s) were 2–3 fold lower. This difference could not be explained by possible concentration error (±10%, examined by simulations).
The dissociation kinetics was examined in chase experiments which obeyed (within the examined time scale) one of the below schemes: HC·CBC → HC → HC·X or HC·X → HC → HC·CBC (first step was rate limiting). The dissociation kinetics of the ligands CBC, Cbl and Cbi was measured after formation of the corresponding complexes with rhHC, followed by addition of external CBC (or Cbl in the case of CBC itself) (Figure 5B). The dissociation rate constants were then calculated from linear slopes (Table 2). […] It should be understood, that evaluation of rate constants below 3 · 10^−6 s^−1 within the examined time scale cannot be precise, and that the records were used for comparison of different ligands rather than for precise quantification of k −s.
[…] The binding kinetics was monitored by means of stopped flow method (DX.17 MV stopped-flow spectro-fluorometer, Applied Biophysics, UK) using the fluorescent response from a Cbl-conjugate CBC [32], [33], excitation 525 nm, emission >550 nm, slit 1.5 mm, voltage 390, bandpass of 18.6 nm, light path of 1 cm. […] The relevant rate constants of association were calculated by computer fitting, as described elsewhere, [33].
The dissociation reactions were monitored on fluorometer Varian Eclipse (Varian, Australia) using the fluorescent response of CBC, excitation 525 nm (slit 5 nm), emission 550 nm (slit 5 nm), photomultiplier 600 V. In one setup the pre-formed rhHC·CBC complex (1 µM, 2 min) was mixed with free Cbl (1 µM), and decrease in fluorescence was registered due to rhHC·CBC ↔ Cbl exchange. Dissociation of the non-fluorescent ligands (Cbl or Cbi) was measured in similar chase experiments. […] The endogenous ligand dissociated from the protein (rate limiting step), whereupon CBC immediately bound to rhHC and increased fluorescence.

[2] = test system: native HC (native human haptocorrin); parameters: method as in PMID 17487979; conditions: 20°C, cited from earlier work; for k−s dissociation rate constant: pH 7.5, measured over a period of 100 h; for k+s binding rate constant: pH 7.5
IF (intrinsic factor) = IF (intrinsic factor) (Homo sapiens, UniProt P27352); assay: Concurrent binding kinetics test with CBC and Cbl; conditions: data not shown
TC (transcobalamin) = molecular target: T2, TC (transcobalamin); assay: Concurrent binding kinetics test with CBC and Cbl; conditions: data not shown
[3] = test system: HepG2 cells expressing the asialoglycoprotein receptor; assay: Internalisation of 125I-labelled proteins into HepG2 cells; assay type: cell-based; conditions: 125I-labelled protein
Source text: Depending on the source of expression, different isoforms of HC exist in human blood and extracellular fluids. […] We tested whether ^125I-labelled rhHC would be readily taken up by HepG2 cells expressing the asialoglycoprotein receptor involved in HC clearance. […] Only after removal of terminal sialic acid by neuraminidase, rhHC and native HC were internalised. Removal of the terminal sialic acid residues was qualitatively determined by SDS/PAGE (Figure 6A).
The proteins were labelled with ^125I using the Iodogen method (Pierce). Labelled protein was purified on a PD10 column (GE healthcare, Glattbrugg, Switzerland). HEPG2 cells were incubated in twelve-well plates in triplicates with about 1 µg of labelled protein for 1 h at 4°C. The plates were then incubated for 0, 1.5, 3, 6 h at 37°C for internalisation. After these times, the cells were washed twice with PBS/0.1% bovine serum albumin and then incubated for 5 min with ice-cold acid wash buffer (50 mM Glycine-HCl, 100 mM NaCl, pH 2.8) to remove the cell-surface bound radioligand. Subsequently, cells were solubilised by incubation with 1 N NaOH for 5 min. at 37°C. At each time point the radioactivity in the cell medium (released), the acid wash (cell-surface bound) and the solubilised cells (internalised) were determined with a NaI-γ-counter (Cobra II Packard, Canberra Packard GmbH, Frankfurt, Germany).

[4] = Active protein fraction (AP) from absorbance ratio A280/A356 after saturation with aquo-Cbl; assay type: binding
Source text: The spectral features of the complex rhHC•aquo-Cbl were explored further when rhHC was saturated with aquo-Cbl added in steps at concentrations below the total binding capacity of the protein (Figure 3B). This allowed calculation of the molar absorbance coefficients of aquo-Cbl when bound to rhHC (Table 1). These parameters helped to evaluate the active protein fraction (AP) as previously shown for IF [27]. For rhHC the value of AP was found from the ratio of R = A280/A356 according to the equation below and the values of absorbance coefficients from Table 1. [drawing 1]
Prior to AP measurements, rhHC was saturated with an excess of aquo-Cbl, free aquo-Cbl was bound to the specific tetrazole adsorbent, whereupon the spectrum of rhHC·Cbl was recorded and compared to the control sample (buffer + aquo-Cbl + adsorbent). After subtraction of the control spectrum, the absorbance ratio and AP were calculated.
rhHC (10 µM) was saturated with an excess of CNCbl (20 µM) and subjected to dialysis against a 50-fold volume excess of 5 M GdnHCl (30°C, 180 rpm). The solution was changed at days 2 and 3. Incubation was stopped after day 4, whereupon rhHC was renatured by dialysis against 0.2 M Na-phosphate buffer pH 7.5, see also ref. [31].

[5] = rhHC preparation with active protein fraction 0.95
[6] = after removal of terminal sialic acid by neuraminidase
[7] = without neuraminidase treatment, time span of 6 h

Sequence of IF (intrinsic factor) (P27352 19-417, species assumed): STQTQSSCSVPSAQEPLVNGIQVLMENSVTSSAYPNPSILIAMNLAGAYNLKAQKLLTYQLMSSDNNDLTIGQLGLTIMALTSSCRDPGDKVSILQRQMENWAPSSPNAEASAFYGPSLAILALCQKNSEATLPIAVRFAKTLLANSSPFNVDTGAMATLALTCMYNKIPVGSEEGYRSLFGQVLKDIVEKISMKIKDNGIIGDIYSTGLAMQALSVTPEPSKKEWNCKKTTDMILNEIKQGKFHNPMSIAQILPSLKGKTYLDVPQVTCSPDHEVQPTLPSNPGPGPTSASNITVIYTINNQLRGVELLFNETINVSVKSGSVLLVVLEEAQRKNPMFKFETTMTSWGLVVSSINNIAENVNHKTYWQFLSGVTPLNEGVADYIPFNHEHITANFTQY

Molecule	k+s binding rate constant [1, 5]	k+s binding rate constant ([1]; rhHC preparation with active protein fraction 0.99)	k−s dissociation rate constant [2]	k+s binding rate constant [2]	k+s binding rate constant (IF (intrinsic factor))	k−s dissociation rate constant [1, 5]	k+s binding rate constant (TC (transcobalamin))	Internalisation into HepG2 cells [3, 6]	Internalisation into HepG2 cells [3, 7]	AP active protein fraction after renaturing ([4]; apo-rhHC after Cbl saturation, GdnHCl dialysis and renaturing, preparation with AP = 0.95 before treatment)	Cbl binding capacity ([4]; rhHC)
CC1=C2[N-][C@H]([C@H](CC(N)=O)[C@@]2(C)CCC(=O)NC[C@@H](C)O)[C@]2(C)N=C(C(C)=C3N=C(C=C4N=C1[C@@H](CCC(N)=O)C4(C)C)[C@@H](CCC(N)=O)[C@]3(C)CC(N)=O)[C@@H](CCC(N)=O)[C@]2(C)CC(N)=O.[Co+2] [Cbi, cobinamide]	21 10^6 M^−1s^−1	33 10^6 M^−1s^−1	≈5 · 10^−7 s^−1	7.3e+07 M⁻¹ s⁻¹							
C/C1=C2/[N-][C@H]([C@H](CC(N)=O)[C@@]2(C)CCC(=O)NC[C@@H](C)OP(=O)([O-])O[C@H]2[C@@H](O)[C@@H](n3cnc4cc(C)c(C)cc43)O[C@@H]2CO)[C@]2(C)N=C(/C(C)=C3N=C(/C=C4N=C1[C@@H](CCC(N)=O)C\4(C)C)[C@@H](CCC(N)=O)[C@]\3(C)CC(N)=O)[C@@H](CCC(N)=O)[C@]2(C)CC(N)=O.[Co] [Cbl, cobalamin]	X/19/X· 10^6 10^6 M^−1s^−1		≈5 · 10^−7 s^−1	9e+07 M⁻¹ s⁻¹	60–70 · 10^6 M^−1 s^−1	X/≤3/X· 10^−6 10^−6 s^−1	60–70 · 10^6 M^−1 s^−1				
rhHC: recombinant human haptocorrin expressed in HEK293 cells, tag removed, four excessive C-terminal residues (…LVPR) (protein, 125I label (Iodogen method); glycosylated, highly sialylated; left off: Myc, C-terminal, cleaved | His6, C-terminal, cleaved) EICEVSEENYIRLKPLLNTMIQSNYNRGTSAVNVVLSLKLVGIQIQTLMQKMIQQIKYNVKSRLSDVSSGELALIILALGVCRNAEENLIYDYHLIDKLENKFQAEIENMEAHNGTPLTNYYQLSLDVLALCLFNGNYSTAEVVNHFTPENKNYYFGSQFSVDTGAMAVLALTCVKKSLINGQIKADEGSLKNISIYTKSLVEKILSEKKENGLIGNTFSTGEAMQALFVSSDYYNENDWNCQQTLNTVLTEISQGAFSNPNAAAQVLPALMGKTFLDINKDSSCVSASGNFNISADEPITVTPPDSQSYISVNYSVRINETYFTNVTVLNGSVFLSVMEKAQKMNDTIFGFTMEERSWGPYITCIQGLCANNNDRTYWELLSGGEPLSQGAGSYVVRNGENLEVRWSKYLVPR								internalised	not internalised	0.95	95–99%
native HC: native human haptocorrin purified from plasma of a patient with hepatocellular carcinoma (protein, 125I label (Iodogen method); glycosylated, native human haptocorrin purified from plasma of a patient with hepatocellular carcinoma) EICEVSEENYIRLKPLLNTMIQSNYNRGTSAVNVVLSLKLVGIQIQTLMQKMIQQIKYNVKSRLSDVSSGELALIILALGVCRNAEENLIYDYHLIDKLENKFQAEIENMEAHNGTPLTNYYQLSLDVLALCLFNGNYSTAEVVNHFTPENKNYYFGSQFSVDTGAMAVLALTCVKKSLINGQIKADEGSLKNISIYTKSLVEKILSEKKENGLIGNTFSTGEAMQALFVSSDYYNENDWNCQQTLNTVLTEISQGAFSNPNAAAQVLPALMGKTFLDINKDSSCVSASGNFNISADEPITVTPPDSQSYISVNYSVRINETYFTNVTVLNGSVFLSVMEKAQKMNDTIFGFTMEERSWGPYITCIQGLCANNNDRTYWELLSGGEPLSQGAGSYVVRNGENLEVRWSKY								internalised	not internalised		
